Laboratory results from US20130084322A1, “DRUG-IMPREGNATED BIODEGRADABLE STENT AND METHODS OF MAKING THE SAME” (Tim Wu, priority 2010, published 2013).
“Also recorded” adds a separate entry of the source.

How the values were obtained:
[1] = HPLC analysis of paclitaxel in the formed tube/stent (stability to extrusion); assay type: physicochemical; details: extraction in 50% ethanol and 50% methanol overnight at room temperature; FIG. 2
Experimental: The 10 μl extracting solutions were further analyzed by HPLC (HP16 series 1090, Hewlett-Packard Co. Palo Alto, Calif.). The samples were analyzed on a C18-reverse phase column (HP: 4.6×100 mm RP18) using a mobile phase consisting of 0.005% TFA buffer (0.05 ml Trifluoroacetic acid in 1000 ml acetonitrile) delivered at a flow rate of 1.0 mL/min.

[2] = after releasing from stent; through specific binding to binding proteins; cited from earlier work

Row | SMILES | stability of paclitaxel during extrusion (HPLC peaks, pre-extrusion vs stent samples) [1] | retention in blood vessel wall [2]
1 | CC(=O)O[C@H]1C(=O)[C@@]2(C)[C@H]([C@H](OC(=O)c3ccccc3)[C@]3(O)C[C@H](OC(=O)[C@H](O)[C@@H](NC(=O)c4ccccc4)c4ccccc4)C(C)=C1C3(C)C)[C@]1(OC(C)=O)CO[C@@H]1C[C@@H]2O [paclitaxel] | not decomposed during extrusion; also recorded: survived the elevated extrusion temperature and are stable inside the stent strut | 
2 | CO[C@H]1C[C@@H]2CC[C@@H](C)[C@@](O)(O2)C(=O)C(=O)N2CCCC[C@H]2C(=O)O[C@H]([C@H](C)C[C@@H]2CC[C@@H](O)[C@H](OC)C2)CC(=O)[C@H](C)/C=C(\C)[C@@H](O)[C@@H](OC)C(=O)[C@H](C)C[C@H](C)/C=C/C=C/C=C/1C [sirolimus] |  | up to three days
